Where “and” joins values, the source holds several entries; their conditions need not be identical. Equal entries are not always repeated. Where two headings read alike, the source gives them in different places.
Key:
[1] = test system: Plasmodium falciparum (3D7); test: Antimalarial activity in cell-based assay; details: 3D7, read-out: IC50, Pf (3D7)
[2] = test system: OCI-AML-1 cell lines (acute myeloid leukemia); details: read-out: IC50, AML-1; ref [17]; cited from earlier work
Mt ODCase [3] = target: T1, Mt ODCase (Methanothermobacter thermautotrophicus, UniProt O26232); details: cited from earlier work
[4] = test system: Plasmodium falciparum (3D7); details: read-out: IC50, Pf (3D7); ref [21]; cited from earlier work
CHO = details: read-out: IC50, CHO; ref [21]; cited from earlier work
Mt ODCase [5] = target: T1, Mt ODCase; test: Time-dependent inactivation of Mt ODCase; assay type: biochemical, Methanobacterium thermoautotrophicum
Mt ODCase [6] = target: T1, Mt ODCase; details: cited from earlier work; remark: listed apart in the source
human ODCase [7] = target: T2, human ODCase (Homo sapiens, UniProt P11172); details: read-out: ODCase Ki, human; competitive inhibition; ref [15],[16],[17]; cited from earlier work
[8] = test system: OCI-AML-1 cell lines (acute myeloid leukemia); test: Anticancer activity in cell-based assay; details: AML1, read-out: IC50, AML-1
Mt ODCase [9] = target: T1, Mt ODCase; test: Reversible, competitive inhibition of Mt ODCase; assay type: biochemical, Methanobacterium thermoautotrophicum
human ODCase [10] = target: T2, human ODCase; test: Reversible, competitive inhibition of human ODCase; assay type: biochemical
ODCase = ODCase (Methanothermobacter thermautotrophicus, UniProt O26232); test: Mass spectral analysis of enzyme-inhibitor complexes; parameters: species or system Methanobacterium thermoautotrophicum; details: enzyme incubated with inhibitor; identical results with human ODCase
[11] = ODCase Ki, Mt, competitive inhibition, ITC, 55°C

CCN(CC)CCCC(C)Nc1ccnc2cc(Cl)ccc12 (centres unmarked) [Chloroquine]
IC50 [1]: 0.022 ± 0.002 µM

O=c1cnn([C@@H]2O[C@H](CO)[C@@H](O)[C@H]2O)c(=O)[nH]1 [Compound 5, 6-azauridine]
IC50 [2]: 6.1 µM

NC(=O)c1cc(=O)[nH]c(=O)n1[C@@H]1O[C@H](COP(=O)(O)O)[C@@H](O)[C@H]1O [Compound 6-CONH2-UMP, 6-Amido-UMP]
Ki (Mt ODCase [3]; read-out: Ki, Mt ODCase, text value in mM, ref [15],[21]): 1.32 ± 0.04 mM
Ki (Mt ODCase [3]; read-out: ODCase Ki, Mt, competitive inhibition, ref [15],[21]): 0.00132 ± 4e-05 mM

O=c1cc(I)n([C@@H]2O[C@H](CO)[C@@H](O)[C@H]2O)c(=O)[nH]1 [Compound 6-I-uridine, 6-iodouridine]
IC50 [4]: 6.2 ± 0.7 µM
IC50 (CHO): 366 ± 45 µM

O=c1cc(I)n([C@@H]2O[C@H](COP(=O)(O)O)[C@@H](O)[C@H]2O)c(=O)[nH]1 [Compound 10, 6-iodo-UMP]
second-order rate constant relative to 2′-deoxy-2′-fluoro analog 33 (Mt ODCase [5]; higher than 33): ~ 5 orders of magnitude
kobs/[I], M. thermoautotrophicum ODCase (Mt ODCase [6]; irreversible inactivation, ref [16],[22]): 260000 M⁻¹ s⁻¹
kinact (Mt ODCase [6]; text value for the ribofuranosyl analog, ref [16],[22]): 260000 h⁻¹

N#Cc1cc(=O)[nH]c(=O)n1[C@@H]1O[C@H](COP(=O)(O)O)[C@@H](O)[C@H]1O [Compound 11, 6-CN-UMP]
Ki (Mt ODCase [3]; read-out: ODCase Ki, Mt, competitive inhibition, ref [15],[16],[17]): 0.0286 ± 0.0021 mM
Ki (human ODCase [7]): 204 ± 11 µM

[N-]=[N+]=Nc1c(F)c(=O)[nH]c(=O)n1[C@@H]1O[C@H](COP(=O)(O)O)[C@@H](O)[C@H]1O [Compound 12, 6-azido-5-fluoro-UMP]
kinact, Mt ODCase (Mt ODCase [6]; first-order rate of inactivation, ref [17]): 41 ± 3 h⁻¹
Ki (Mt ODCase [6]; read-out: KI, Mt ODCase, time-dependent inactivation, ref [17]): 18.2 ± 0.0036 µM

O=c1cc(I)n([C@@H]2O[C@H](CO)[C@@H](O)[C@H]2F)c(=O)[nH]1 [Compound 27, 2′-Deoxy-2′-fluoro-6-iodo-β-D-uridine]
IC50 [8]: > 50 µM

[N-]=[N+]=Nc1cc(=O)[nH]c(=O)n1[C@@H]1O[C@H](CO)[C@@H](O)[C@H]1F [Compound 28, 6-Azido-2′-deoxy-2′-fluoro-β-D-uridine]
IC50 [8]: > 50 µM

N#Cc1cc(=O)[nH]c(=O)n1[C@@H]1O[C@H](CO)[C@@H](O)[C@H]1F [Compound 29, 6-Cyano-2′-deoxy-2′-fluoro-β-D-uridine]
IC50 [8]: > 50 µM

NC(=O)c1cc(=O)[nH]c(=O)n1[C@@H]1O[C@H](CO)[C@@H](O)[C@H]1F [Compound 30, 6-Amido-2′-deoxy-2′-fluoro-β-D-uridine]
IC50 [8]: > 50 µM

N#Cc1cn([C@@H]2O[C@H](CO)[C@@H](O)[C@H]2F)c(=O)[nH]c1=O [Compound 31, 5-Cyano-2′-deoxy-2′-fluoro-β-D-uridine]
IC50 [8]: > 50 µM

N#Cc1cc(=O)[nH]c(=O)n1[C@@H]1O[C@H](COP(=O)(O)O)[C@@H](O)[C@H]1F [Compound 35, 6-Cyano-2′-deoxy-2′-fluoro-β-D-uridine-5′-O-monophosphate]
Ki (Mt ODCase [9]; [11]): 0.037 ± 0.0025 mM
Ki (human ODCase [10]): > 2000 µM
inhibition of the catalytic activity of human ODCase (human ODCase [10]; up to a concentration of 2 mM): did not inhibit
KI (inactivation) (Mt ODCase [5]; read-out: KI, equilibrium inhibition constant of inactivation, Mt ODCase, time-dependent inactivation): 30000 ± 6000 µM
kinact (Mt ODCase [5]; read-out: kinact, Mt ODCase): 0.000556 s⁻¹
enzyme-inhibitor complex by mass spectrometry (ODCase): covalent complex

NC(=O)c1cc(=O)[nH]c(=O)n1[C@@H]1O[C@H](COP(=O)(O)O)[C@@H](O)[C@H]1F [Compound 36, 6-Amido-2′-deoxy-2′-fluoro-β-D-uridine-5′-O-monophosphate]
Ki (Mt ODCase [9]; Ki, Mt ODCase, text values in mM): > 3 mM and 3.32 mM
Ki (Mt ODCase [9]; [11]): 3.32 ± 0.176 mM
Ki (human ODCase [10]): > 3000 µM

N#Cc1cn([C@@H]2O[C@H](COP(=O)(O)O)[C@@H](O)[C@H]2F)c(=O)[nH]c1=O [Compound 37, 5-Cyano-2′-deoxy-2′-fluoro-β-D-uridine-5′-O-monophosphate]
Ki (Mt ODCase [9]; [11]): 0.36 ± 0.023 mM
Ki (human ODCase [10]): 759 ± 88 µM

Reference: publication PMC3083246 (Journal of medicinal chemistry, 2011)
